According to patent US20060069132A1, “Azolecarboxamide herbicides” (priority 2004, published 2006):

Experiments:
barnyardgrass [1] = assay: Test B pre-/postemergence herbicide test; format: in vivo, Echinochloa crus-galli
Outline: (§1)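 Formulation: non-phytotoxic solvent mix with surfactant. Timing: preemergence on seed and postemergence on 2–18 cm plants, applied concurrently. Readout after 13–15 d greenhouse: visual 0–100 control rating against controls.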

Surinam grass = assay: Test B pre-/postemergence herbicide test; format: in vivo, Urochloa decumbens; conditions: for Surinam Grass plant response rating: postemergence
Outline: (§2)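 Visual rating, 0 (no effect) to 100 (complete control), versus untreated controls after 13–15 d in greenhouse. Pre- and postemergence applications (postemergence plants 2–18 cm, 1–4 leaves); flooded paddy arm at 2-leaf stage. Compounds in non-phytotoxic solvent plus surfactant.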

cocklebur = assay: Test B pre-/postemergence herbicide test; format: in vivo, Xanthium strumarium
Outline: as §1

corn = assay: Test B pre-/postemergence herbicide test; format: in vivo, Zea mays
Outline: as §2

large crabgrass = assay: Test B pre-/postemergence herbicide test; format: in vivo, Digitaria sanguinalis
Outline: as §2

giant foxtail = assay: Test B pre-/postemergence herbicide test; format: in vivo, Setaria faberi
Outline: as §2

lambsquarters = assay: Test B pre-/postemergence herbicide test; format: in vivo, Chenopodium album; conditions: for Lambsquarters plant response rating: postemergence
Outline: as §2

morningglory = assay: Test B pre-/postemergence herbicide test; format: in vivo, Ipomoea coccinea; conditions: for Morningglory plant response rating: postemergence
Outline: as §1

pigweed = assay: Test B pre-/postemergence herbicide test; format: in vivo, Amaranthus retroflexus; conditions: for Pigweed plant response rating: postemergence
Outline: as §2

rice [2] = assay: Test B pre-/postemergence herbicide test; format: in vivo, Oryza sativa; conditions: preemergence
Outline: as §2

velvetleaf = assay: Test B pre-/postemergence herbicide test; format: in vivo, Abutilon theophrasti; conditions: for Velvetleaf plant response rating: postemergence
Outline: as §2

blackgrass = assay: Test B postemergence herbicide test; format: in vivo, Alopecurus myosuroides; conditions: scale 0 (no effect) to 100 (complete control); for Plant response rating, Blackgrass: Postemergence, visual rating after 13 to 15 days; for Blackgrass plant response rating: postemergence, visual rating
Outline: (§3)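 Scale 0–100: zero equals no visible effect, 100 complete control, judged by eye relative to controls. Timing: 13 to 15 days in greenhouse post-treatment. Growth stage at spraying: two leaves (paddy) or one to four leaves, 2–18 cm (postemergence).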

wheat = assay: Test B postemergence herbicide test; format: in vivo, Triticum aestivum; parameters: key to Wheat plant response rating: 0 = no effect, 100 = complete control; conditions: for Plant response rating, Wheat: Postemergence, visual rating after 13 to 15 days; for Wheat plant response rating: postemergence
Outline: (§4)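 Postemergence plants were sprayed with formulated test chemicals at 2 to 18 cm height (1- to 4-leaf stage); paddy species were grown to the 2-leaf stage. After 13 to 15 days in a greenhouse, injury was rated visually against untreated controls on a 0–100 scale (0 = no effect, 100 = complete control).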

wild oat = assay: Test B postemergence herbicide test; format: in vivo, Avena fatua; conditions: for Plant response rating, Oat, Wild: Postemergence, visual rating after 13 to 15 days; for Oat, Wild plant response rating: postemergence
Outline: as §4

rice [3] = assay: Test B flooded paddy test; format: in vivo, Oryza sativa; conditions: 1000 g ai/ha, scale 0 to 100 (0 no effect, 100 complete control)
Outline: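 Read-out: visual comparison with controls, scored 0 to 100, where 100 means complete control and 0 no effect. Formulated chemicals were applied postemergence to plants 2–18 cm tall (1- to 4-leaf), or to flooded-paddy plants at the 2-leaf stage, then held 13 to 15 days under glass.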

[4] = system: small flower umbrella sedge; assay: Test B flooded paddy test; format: in vivo, Cyperus difformis; conditions: 1000 g ai/ha, scale 0 to 100 (0 no effect, 100 complete control)
Outline: as §3

ducksalad = assay: Test B flooded paddy test; format: in vivo, Heteranthera limosa; conditions: 1000 g ai/ha, scale 0 to 100 (0 no effect, 100 complete control)
Outline: as §3

barnyardgrass [5] = assay: Test B flooded paddy test; format: in vivo, Echinochloa crus-galli; conditions: 1000 g ai/ha, scale 0 to 100 (0 no effect, 100 complete control)
Outline: as §3

[6] = Postemergence, 500 g ai/ha, visual rating after 13 to 15 days, scale 0 (no effect) to 100 (complete control)
[7] = Preemergence, 500 g ai/ha, scale 0 to 100
[8] = postemergence, 125 g ai/ha, visual rating, scale 0 (no effect) to 100 (complete control)
[9] = preemergence, 125 g ai/ha, 0 to 100 scale, 0 is no effect, 100 is complete control
[10] = 125 g ai/ha, visual rating, scale 0 (no effect) to 100 (complete control)
[11] = 125 g ai/ha, 0 to 100 scale, 0 is no effect, 100 is complete control
[12] = 500 g ai/ha, scale 0 (no effect) to 100 (complete control)
[13] = 500 g ai/ha, visual rating 0-100, 0 no effect, 100 complete control, preemergence
[14] = 125 g ai/ha, 0 = no effect, 100 = complete control, preemergence
[15] = 500 g ai/ha, visual rating, 0 = no effect, 100 = complete control, preemergence
[16] = postemergence, 500 g ai/ha, visual rating, scale 0 (no effect) to 100 (complete control)
[17] = 500 g ai/ha, scale 0 to 100, 0 is no effect, 100 is complete control
[18] = postemergence, 500 g ai/ha, scale 0 to 100, 0 is no effect, 100 is complete control

## CCNC(=O)c1cc(NC(=O)c2cc(C(C)(C)C)nn2CC)ccc1C [Compound 68]
Barnyardgrass [1]; [6]
  Plant response rating, Barnyardgrass: 0
Barnyardgrass [1]; [7]
  Barnyardgrass plant response rating: 10
Barnyardgrass [1]; [8]
  Barnyardgrass plant response rating: 0
Barnyardgrass [1]; [9]
  Plant response rating, Barnyardgrass: 0
Surinam grass; [6]
  Plant response rating, Surinam Grass: 0
Surinam grass; [10]
  Surinam Grass plant response rating: 0
Surinam grass; [9]
  Plant response rating, Surinam Grass: 0
cocklebur; [6]
  Plant response rating, Cocklebur: 10
cocklebur; [7]
  Cocklebur plant response rating: 0
cocklebur; [8]
  Cocklebur plant response rating: 10
cocklebur; [9]
  Plant response rating, Cocklebur: 0
corn; [6]
  Plant response rating, Corn: 0
corn; [7]
  Corn plant response rating: 0
corn; [8]
  Corn plant response rating: 0
corn; [9]
  Plant response rating, Corn: 0
Large crabgrass; [6]
  Plant response rating, Crabgrass, Large: 0
Large crabgrass; [7]
  Crabgrass, Large plant response rating: 0
Large crabgrass; [8]
  Crabgrass, Large plant response rating: 0
Large crabgrass; [9]
  Plant response rating, Crabgrass, Large: 0
Giant foxtail; [6]
  Plant response rating, Foxtail, Giant: 0
Giant foxtail; [7]
  Foxtail, Giant plant response rating: 0
Giant foxtail; [8]
  Foxtail, Giant plant response rating: 0
Giant foxtail; [9]
  Plant response rating, Foxtail, Giant: 0
lambsquarters; [6]
  Plant response rating, Lambsquarters: 10
lambsquarters; [10]
  Lambsquarters plant response rating: 0
lambsquarters; [9]
  Plant response rating, Lambsquarters: 20
morningglory; [6]
  Plant response rating, Morningglory: 0
morningglory; [10]
  Morningglory plant response rating: 0
morningglory; [9]
  Plant response rating, Morningglory: 20
pigweed; [6]
  Plant response rating, Pigweed: 30
pigweed; [10]
  Pigweed plant response rating: 10
pigweed; [9]
  Plant response rating, Pigweed: 70
Rice [2]; [11]
  Plant response rating, Rice: 0
velvetleaf; [6]
  Plant response rating, Velvetleaf: 0
velvetleaf; [10]
  Velvetleaf plant response rating: 0
velvetleaf; [9]
  Plant response rating, Velvetleaf: 0
blackgrass; 500 g ai/ha
  Plant response rating, Blackgrass: 20
blackgrass; 125 g ai/ha
  Blackgrass plant response rating: 10
wheat; [12]
  Plant response rating, Wheat: 0
wheat; [10]
  Wheat plant response rating: 0
Wild oat; [12]
  Plant response rating, Oat, Wild: 20
Wild oat; [10]
  Oat, Wild plant response rating: 10
Rice [3]; visual rating, 13 to 15 days
  Rice plant response rating: 0
[4]; visual rating, 13 to 15 days
  Sedge, Umbrella plant response rating: 0
ducksalad; visual rating, 13 to 15 days
  Ducksalad plant response rating: 0
Barnyardgrass [5]; visual rating, 13 to 15 days
  Barnyardgrass plant response rating: 0

## CCOC(=O)c1cc(NC(=O)c2cc(C(C)(C)C)nn2CC)ccc1C [Compound 99]
Barnyardgrass [1]; [13]
  Plant response rating, Barnyardgrass: 30
Barnyardgrass [1]; [6]
  Plant response rating, Barnyardgrass: 0
Barnyardgrass [1]; [8]
  Barnyardgrass plant response rating: 0
Barnyardgrass [1]; [9]
  Plant response rating, Barnyardgrass: 0
Surinam grass; [13]
  Plant response rating, Surinam Grass: 30
Surinam grass; [6]
  Plant response rating, Surinam Grass: 10
Surinam grass; [10]
  Surinam Grass plant response rating: 10
Surinam grass; [9]
  Plant response rating, Surinam Grass: 10
cocklebur; [13]
  Plant response rating, Cocklebur: 0
cocklebur; [6]
  Plant response rating, Cocklebur: 30
cocklebur; [8]
  Cocklebur plant response rating: 0
cocklebur; [9]
  Plant response rating, Cocklebur: 0
corn; [13]
  Plant response rating, Corn: 0
corn; [6]
  Plant response rating, Corn: 20
corn; [8]
  Corn plant response rating: 10
corn; [9]
  Plant response rating, Corn: 0
Large crabgrass; [13]
  Plant response rating, Crabgrass, Large: 70
Large crabgrass; [6]
  Plant response rating, Crabgrass, Large: 10
Large crabgrass; [8]
  Crabgrass, Large plant response rating: 10
Large crabgrass; [9]
  Plant response rating, Crabgrass, Large: 20
Giant foxtail; [13]
  Plant response rating, Foxtail, Giant: 20
Giant foxtail; [6]
  Plant response rating, Foxtail, Giant: 30
Giant foxtail; [8]
  Foxtail, Giant plant response rating: 10
Giant foxtail; [9]
  Plant response rating, Foxtail, Giant: 10
lambsquarters; [13]
  Plant response rating, Lambsquarters: 20
lambsquarters; [6]
  Plant response rating, Lambsquarters: 90
lambsquarters; [10]
  Lambsquarters plant response rating: 70
lambsquarters; [9]
  Plant response rating, Lambsquarters: 0
morningglory; [13]
  Plant response rating, Morningglory: 0
morningglory; [6]
  Plant response rating, Morningglory: 20
morningglory; [10]
  Morningglory plant response rating: 0
morningglory; [9]
  Plant response rating, Morningglory: 0
pigweed; [6]
  Plant response rating, Pigweed: 70
pigweed; [10]
  Pigweed plant response rating: 20
pigweed; [9]
  Plant response rating, Pigweed: 0
Rice [2]; 500 g ai/ha, visual rating 0-100, 0 no effect, 100 complete control
  Plant response rating, Rice: 0
Rice [2]; [11]
  Plant response rating, Rice: 0
velvetleaf; [13]
  Plant response rating, Velvetleaf: 20
velvetleaf; [6]
  Plant response rating, Velvetleaf: 40
velvetleaf; [10]
  Velvetleaf plant response rating: 20
velvetleaf; [9]
  Plant response rating, Velvetleaf: 10
blackgrass; 500 g ai/ha
  Plant response rating, Blackgrass: 40
blackgrass; 125 g ai/ha
  Blackgrass plant response rating: 20
wheat; [12]
  Plant response rating, Wheat: 20
wheat; [10]
  Wheat plant response rating: 20
Wild oat; [12]
  Plant response rating, Oat, Wild: 40
Wild oat; [10]
  Oat, Wild plant response rating: 20
Rice [3]; visual rating, 13 to 15 days
  Rice plant response rating: 0
[4]; visual rating, 13 to 15 days
  Sedge, Umbrella plant response rating: 40
ducksalad; visual rating, 13 to 15 days
  Ducksalad plant response rating: 0
Barnyardgrass [5]; visual rating, 13 to 15 days
  Barnyardgrass plant response rating: 0

## CCOC(=O)c1cc(NC(=O)c2cc(C(C)(C)C)nn2CC)c(F)cc1F [Compound 250]
Barnyardgrass [1]; [14]
  Barnyardgrass plant response rating (0 to 100 scale): 0
Barnyardgrass [1]; [15]
  Plant response rating, Barnyardgrass: 10
Barnyardgrass [1]; [8]
  Barnyardgrass plant response rating: 20
Barnyardgrass [1]; [16]
  Barnyardgrass plant response rating: 20
Surinam grass; [14]
  Surinam Grass plant response rating (0 to 100 scale): 10
Surinam grass; [15]
  Plant response rating, Surinam Grass: 30
Surinam grass; [10]
  Surinam Grass plant response rating: 10
Surinam grass; [17]
  Surinam Grass plant response rating: 20
cocklebur; [14]
  Cocklebur plant response rating (0 to 100 scale): 0
cocklebur; [15]
  Plant response rating, Cocklebur: 0
cocklebur; [8]
  Cocklebur plant response rating: 30
cocklebur; [16]
  Cocklebur plant response rating: 40
corn; [14]
  Corn plant response rating (0 to 100 scale): 0
corn; [15]
  Plant response rating, Corn: 0
corn; [8]
  Corn plant response rating: 20
corn; [18]
  Corn plant response rating: 30
Large crabgrass; [14]
  Crabgrass, Large plant response rating (0 to 100 scale): 0
Large crabgrass; [15]
  Plant response rating, Crabgrass, Large: 10
Large crabgrass; [8]
  Crabgrass, Large plant response rating: 20
Large crabgrass; [18]
  Crabgrass, Large plant response rating: 20
Giant foxtail; [14]
  Foxtail, Giant plant response rating (0 to 100 scale): 0
Giant foxtail; [15]
  Plant response rating, Foxtail, Giant: 10
Giant foxtail; [8]
  Foxtail, Giant plant response rating: 20
Giant foxtail; [18]
  Foxtail, Giant plant response rating: 30
lambsquarters; [14]
  Lambsquarters plant response rating (0 to 100 scale): 0
lambsquarters; [10]
  Lambsquarters plant response rating: 0
lambsquarters; [17]
  Lambsquarters plant response rating: 40
morningglory; [14]
  Morningglory plant response rating (0 to 100 scale): 0
morningglory; [15]
  Plant response rating, Morningglory: 0
morningglory; [10]
  Morningglory plant response rating: 20
morningglory; [17]
  Morningglory plant response rating: 30
pigweed; [14]
  Pigweed plant response rating (0 to 100 scale): 0
pigweed; [10]
  Pigweed plant response rating: 30
pigweed; [17]
  Pigweed plant response rating: 70
Rice [2]; 125 g ai/ha, 0 = no effect, 100 = complete control
  Rice plant response rating (0 to 100 scale): 0
Rice [2]; 500 g ai/ha, visual rating, 0 = no effect, 100 = complete control
  Plant response rating, Rice: 10
velvetleaf; [14]
  Velvetleaf plant response rating (0 to 100 scale): 0
velvetleaf; [15]
  Plant response rating, Velvetleaf: 20
velvetleaf; [10]
  Velvetleaf plant response rating: 20
velvetleaf; [17]
  Velvetleaf plant response rating: 30
blackgrass; 125 g ai/ha
  Blackgrass plant response rating: 10
blackgrass; 500 g ai/ha
  Blackgrass plant response rating: 40
wheat; [10]
  Wheat plant response rating: 20
wheat; [17]
  Wheat plant response rating: 40
Wild oat; [10]
  Oat, Wild plant response rating: 20
Wild oat; [17]
  Oat, Wild plant response rating: 40
Rice [3]
  Rice plant response rating: 50
[4]
  Sedge, Umbrella plant response rating: 70
ducksalad
  Ducksalad plant response rating: 40
Barnyardgrass [5]
  Barnyardgrass plant response rating: 0
